These results are taken from ChEMBL document CHEMBL5390223, “Strategies for the Discovery of Oxazolidinone Antibacterial Agents: Development and Future Perspectives” (J Med Chem, 2023).

In general, ED50 refers to the dose at which the effect has come halfway, by size or by number of responders. The IC50 is the concentration that inhibits the measured activity by half. High values mean weaker potency, low ones greater potency. As a reminder, the bioavailability is the share of a dose that reaches the circulation, judged against a reference dose that is usually intravenous. Higher therefore signals good availability.

The test system of data set [1] is Staphylococcus aureus. Put plainly: Antibacterial activity against methicillin-resistant Staphylococcus aureus ATCC 33592 assessed as reduction in bacterial cell growth incubated for 18 hrs by microplate reader assay. It is filed as functional.
Data set [2] concerns Enterococcus faecium. Put plainly: Antimicrobial activity against Vancomycin-resistant Enterococcus faecium ATCC 700221 assessed as growth inhibition after 14 to 16 hrs by CLSI based broth dilution method. It counts as functional. Particulars: time 14-16 hrs. In general terms: In broth dilution the organism is exposed to a series of concentrations in liquid medium.
For data set [3], the system named is Staphylococcus aureus. Description: Antibacterial activity against methicillin-susceptible Staphylococcus aureus […] assessed as reduction in bacterial cell growth incubated for 18 hrs by microplate reader assay. It counts as functional.
Data set [4] concerns Moraxella catarrhalis. Description: Antibacterial activity against Moraxella catarrhalis assessed as inhibition of bacterial growth measured after 24 hrs by broth microdilution method. It is filed as functional.
The test system of data set [5] is Escherichia coli. Description: Antibacterial activity against Escherichia coli assessed as inhibition of bacterial cell growth measured after 24 hrs by broth microdilution method. It is filed as functional.
In data set [6] the test system is Streptococcus pneumoniae. Description: Antibacterial activity against Streptococcus pneumoniae assessed as reduction in bacterial cell growth measured after 24 hrs by broth microdilution method. It counts as functional.
Data set [7] deals with Moraxella catarrhalis. Put plainly: Antibacterial activity against Moraxella catarrhalis ATCC 8176 assessed as inhibition in bacterial growth measured after 24 hrs by broth microdilution method. It counts as functional.
For data set [8], the system named is Haemophilus influenzae. Put plainly: Antibacterial activity against Haemophilus influenzae assessed as reduction in bacterial cell growth measured after 24 hrs by broth microdilution method. It is filed as functional.
Data set [9] concerns Enterococcus. Put plainly: Antibacterial activity against vancomycin-resistant Enterococci assessed as reduction in bacterial cell growth incubated for 24 hrs by CLSI-microbroth dilution method. It is filed as functional.
For data set [10], the system named is Staphylococcus aureus. Put plainly: Antibacterial activity against Staphylococcus aureus ATCC 25923 assessed as reduction in microbial growth incubated for 24 hrs by micro-plate reader assay. It counts as functional.
Data set [11] relates to Enterococcus faecalis. Description: Antibacterial activity against vancomycin-resistant Enterococcus faecalis […] infected in Swiss albino mouse assessed as reduction in bacterial growth by measuring effective dose administered orally 2 to 4 times a day for 2 consecutive days. It is filed as functional. Particulars: route po.
In data set [12] the test system is Staphylococcus aureus. Description: Antibacterial activity against methicillin-susceptible Staphylococcus aureus infected in Swiss albino mouse assessed as reduction in bacterial growth by measuring effective dose administered orally 2 to 4 times a day for 2 consecutive days. It counts as functional. Particulars: route po.
The test system of data set [13] is Pseudomonas aeruginosa. Description: Antibacterial activity against Pseudomonas aeruginosa PAO1 assessed as bacterial growth inhibition incubated for 18 hrs by two-fold serial dilution method. It counts as functional.
In data set [14] the test system is Staphylococcus aureus. Put plainly: Antibacterial activity against Staphylococcus aureus HG001 assessed as reduction in bacterial cell growth incubated for 18 hrs by two-fold serial dilution method. It is filed as functional.
The subject of data set [15] is Mycobacterium tuberculosis. Put plainly: Antimycobacterial activity against Mycobacterium tuberculosis H37Rv assessed as reduction in bacterial cell growth incubated for 6 days by Alamar blue staining based assay. It is filed as functional. Particulars: 144 h, time 6 day. Background: Resazurin is reduced to fluorescent resorufin, in cell work by metabolically active cells.

Data set [16] concerns Escherichia coli. Put plainly: Antibacterial activity against Escherichia coli Delta tolC mutant assessed as bacterial growth inhibition incubated for 24 hrs by broth microdilution method. It counts as functional.
For data set [17], the system named is Staphylococcus aureus. Description: Antibacterial activity against Staphylococcus aureus ATCC 25923 assessed as reduction in bacterial growth incubated for 18 to 24 hrs by microbroth dilution method. The conditions noted are these: time 18-24 hrs. It counts as functional.
Data set [18] concerns Enterococcus faecium. Put plainly: Antibacterial activity against Enterococcus faecium ATCC 19434 assessed as reduction in microbial growth after 24 hrs by two-fold serial dilution method. It counts as functional.
Data set [19] addresses T1, Amine oxidase [flavin-containing] B (Homo sapiens, UniProt P27338).
T1 sequence (P27338 whole entry): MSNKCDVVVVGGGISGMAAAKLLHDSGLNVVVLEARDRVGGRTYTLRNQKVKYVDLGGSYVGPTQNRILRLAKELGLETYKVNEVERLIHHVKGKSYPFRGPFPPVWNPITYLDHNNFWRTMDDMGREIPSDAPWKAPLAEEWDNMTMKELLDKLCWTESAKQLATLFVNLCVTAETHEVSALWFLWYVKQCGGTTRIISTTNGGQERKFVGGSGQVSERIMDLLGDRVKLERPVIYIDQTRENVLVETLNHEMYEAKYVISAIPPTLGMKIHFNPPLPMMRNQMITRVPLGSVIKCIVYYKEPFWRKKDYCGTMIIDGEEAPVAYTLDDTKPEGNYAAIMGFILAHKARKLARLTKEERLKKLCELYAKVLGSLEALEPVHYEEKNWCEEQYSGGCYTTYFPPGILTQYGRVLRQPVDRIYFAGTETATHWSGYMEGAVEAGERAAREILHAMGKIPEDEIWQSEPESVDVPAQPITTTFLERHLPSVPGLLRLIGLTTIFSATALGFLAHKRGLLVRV
Put plainly: Inhibition of MAO-B (unknown origin).

Data set [20] relates to Streptococcus pneumoniae. Put plainly: Antibacterial activity against Streptococcus pneumoniae assessed as reduction in bacterial cell growth inhibition by broth microdilution method. It counts as functional.
The test system of data set [21] is Staphylococcus aureus. Put plainly: Antibacterial activity against methicillin-susceptible Staphylococcus aureus assessed as reduction in bacterial cell growth. It counts as functional.
In data set [22] the test system is Enterococcus faecium. Description: Antimicrobial activity against Vancomycin-resistant Enterococcus faecium ATCC 51559 assessed as growth inhibition after 14 to 16 hrs by CLSI based broth dilution method. It is filed as functional. The conditions noted are these: time 14-16 hrs.
Data set [23] deals with Staphylococcus aureus. Description: Antimicrobial activity against methicillin-resistant Staphylococcus aureus assessed as microbial growth inhibition. It is filed as functional.
Data set [24] relates to Staphylococcus aureus. Description: Antibacterial activity against methicillin-resistant Staphylococcus aureus […] assessed as inhibition of bacterial growth incubated for 24 hrs by microplate reader assay. It counts as functional.
The subject of data set [25] is Enterococcus faecalis. Description: Antibacterial activity against vancomycin-resistant Enterococcus faecalis ATCC 51299 assessed as reduction in bacterial cell growth incubated for 24 hrs by broth microdilution method. It is filed as functional.
Data set [26] can be described thus: Plasma protein binding in rat plasma at 10 mg/kg by LC-MS/MS analysis. The conditions noted are these: read-out: PPB (converted). It is filed as ADME, organism-based.
Data set [27] can be described thus: Oral bioavailability in rat at 2 mg/kg. The conditions noted are these: in vivo. It is filed as ADME, organism-based.
Data set [28] concerns Staphylococcus aureus. Put plainly: Antibacterial activity against methicillin-resistant Staphylococcus aureus infected in mouse assessed as reduction in bacterial growth by measuring effective dose administered orally. It counts as functional. The conditions noted are these: route po.
In data set [29] the test system is Enterococcus faecium. Description: Antibacterial activity against vancomycin-resistant Enterococcus faecium infected in mouse assessed as reduction in bacterial growth by measuring effective dose administered orally. Particulars: route po. It is filed as functional.
Data set [30] concerns Staphylococcus aureus. Description: Antibacterial activity against methicillin-susceptible Staphylococcus aureus infected in mouse assessed as reduction in bacterial growth by measuring effective dose administered orally. It is filed as functional. Particulars: route po.

Values after ≈ are worked out from the molar mass of the structure shown.

Consider `O=C1O[C@@H](Cn2ccnn2)CN1c1ccc(N2CCOCC2)c(F)c1`, for which the MIC in data set [1], in data set [2] and in [3] was 0.5 µg/mL (≈ 1.44 µM) in each case.

For the compound `O=C(NCC(=O)N1CCN(c2ccc(N3C[C@H](Cn4ccnn4)OC3=O)cc2F)CC1)c1ccc([N+](=O)[O-])o1`, the MIC in data set [4] was found to be 0.06 µg/mL (≈ 0.111 µM); in [5], 0.06 µg/mL (≈ 0.111 µM); in data set [6], 0.06 µg/mL (≈ 0.111 µM); in data set [7], 0.25 µg/mL (≈ 0.461 µM); in [8], 0.06 µg/mL (≈ 0.111 µM); in data set [9], 0.06 µg/mL (≈ 0.111 µM).

`CC(=O)NC[C@H]1CN(c2ccc(-c3cnc(-n4cncn4)nc3)c(F)c2)C(=O)O1`: the MIC in data set [10] was found to be 0.125 µg/mL. Besides, the ED50 came to 8.6 mg/kg in data set [11] and 4.2 mg/kg in [12].

As to `CC(=O)NC[C@H]1CN(c2ccc(N3CCN(C(=O)OCn4cc(CNC(=O)C(CNC(=O)C(CNC(=O)CNC(=O)c5cccc(O)c5O)NC(=O)c5cccc(O)c5O)NC(=O)c5cccc(O)c5O)nn4)CC3)c(F)c2)C(=O)O1` (stereo partly drawn), the MIC in data set [13] is over 64 µM; in data set [14], 16 µM (≈ 18 µg/mL).

As to `CC(=O)NC[C@H]1CN(c2ccc(N3CCN(C(=O)CN(CCCNC(=O)c4cccc(O)c4O)C(=O)c4cccc(O)c4O)CC3)c(F)c2)C(=O)O1`, the MIC was over 64 µM in data set [13] and 64 µM (≈ 46.3 µg/mL) in data set [14].

Regarding `CC(=O)NC[C@H]1CN(c2ccc(-c3ccc(CO[C@@H]4COc5nc([N+](=O)[O-])cn5C4)nc3)c(F)c2)C(=O)O1`, the MIC in [15] worked out at 0.15 µg/mL (≈ 0.285 µM).

In the case of `CC(=O)NC[C@H]1CN(c2ccc(N3CCN(C(=O)COCCOCCn4cc(CNC(=O)C(CCCCNC(=O)c5cccc(O)c5O)NC(=O)c5cccc(O)c5O)nn4)CC3)c(F)c2)C(=O)O1` (stereo partly drawn), the MIC in data set [13] was over 64 µM; in data set [14], 64 µM (≈ 61.6 µg/mL).

`CSCC[C@H](NC(=O)[C@H](Cc1ccc(O)cc1)NC(=O)[C@H](CCCCN)NC(=O)[C@@H]1CCCN1C(=O)[C@H](CO)NC(=O)[C@H](Cc1c[nH]c2ccccc12)NCC(=O)N(CCCCNC(=O)c1cccc(O)c1O)C(=O)c1cccc(O)c1O)C(=O)NCC(=O)N1CCN(c2ccc(N3C[C@H](CNC(C)=O)OC3=O)cc2F)CC1`: the MIC in [16] stood at 1 µM (≈ 1.59 µg/mL).

Turning to `CC(=O)NC[C@H]1CN(c2ccc(N3CCN(C(=O)COCCOCCn4cc(CNC(=O)C(CNC(=O)C(CNC(=O)CNC(=O)c5cccc(O)c5O)NC(=O)c5cccc(O)c5O)NC(=O)c5cccc(O)c5O)nn4)CC3)c(F)c2)C(=O)O1` (stereo partly drawn), the MIC in [13] was over 64 µM; in data set [14], 64 µM (≈ 76.8 µg/mL).

In the case of `CC(=O)NC[C@H]1CN(c2ccc(N3CCN(C(=O)OCn4cc(CNC(=O)C(CCCCNC(=O)c5cccc(O)c5O)NC(=O)c5cccc(O)c5O)nn4)CC3)c(F)c2)C(=O)O1` (stereo partly drawn), the figures for the MIC in [13] and in [14] were over 64 µM and 64 µM (≈ 57 µg/mL), respectively.

For `O=C1C=CN(c2c(F)cc(N3C[C@H](CNc4ccon4)OC3=O)c(F)c2F)CC1` [CONTEZOLID], the MIC in [17] stood at 0.06 µg/mL (≈ 0.147 µM); in data set [18], 0.06 µg/mL; in data set [20], 0.06 µg/mL (≈ 0.147 µM). Besides, the IC50 in [19] is 30.1 µM.

For `CC(=O)NC[C@H]1CN(c2ccc(N3CCN(C(=O)CO)CC3)c(F)c2)C(=O)O1` [EPEREZOLID], the MIC in data set [21], in data set [22] and in data set [23] was 1 µg/mL (≈ 2.54 µM) throughout.

Regarding `CC(=O)NC[C@H]1CN(c2ccc(N3CCN(Cc4ccc([N+](=O)[O-])o4)CC3)c(F)c2)C(=O)O1` [RANBEZOLID], the MIC in [24] and in [25] was 0.125 µg/mL (≈ 0.271 µM) in each case.

On to `Cn1nnc(-c2ccc(-c3ccc(N4C[C@H](CO)OC4=O)cc3F)cn2)n1` [TEDIZOLID], for which the fraction unbound in [26] was 0.3. The compound further registered a bioavailability in data set [27] of 91%. The ED50 in data set [28], in data set [29] and in data set [30] was 8.8 mg/kg each time.
